Results filed as inconclusive are left out. Calls of active or inactive are those of the source.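 How the source made its calls: active means fitted activation curve crossing 40% at a concentration no higher than the sample's top valid tested dose; inconclusive means flat fitted curve at 30% to 70% activation, or poor curve fit; inactive means signal decrease, flat curve within 30%, or the rest.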
The compounds below were run on NIH3T3-HGL HSF-1 response element luciferase, 48 h (assay: sustained heat shock response element induction – cell-based, mouse, luciferase, cherry-pick, dose, confirmation (AID 602296);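 further: test compounds applied by themselves with no MG132 co-treatment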).
Compound `COc1cc(SSc2cc(OC)cc([N+](=O)[O-])c2N)c(N)c([N+](=O)[O-])c1` has an AC40 of 17.9 µM. `CC1=Nc2ccccc2/C1=C/c1nc(-c2ccc(C)s2)oc1O` was tested, and the AC40 was 10.1 µM. With `O=C(Nc1cccn(Cc2c(Cl)cccc2Cl)c1=O)c1ccccc1Cl` the AC40 was > 26 µM (inactive). `N#C/C(=C\c1ccc(OCc2ccc(Cl)cc2)cc1)C(=O)Nc1cccc(C(=O)O)c1` gave an AC40 of 2.68 µM. Work on `Cc1cnn(-c2cc(N/N=C/c3cccc(F)c3)ncn2)c1` yielded an AC40 of 9.32 µM. In the case of `O=C(Cc1c(O)c2ccccc2[nH]c1=O)NCc1ccccc1`, the AC40 is reported as > 26 µM (inactive). In the case of `CCc1ccc(CN2C(=O)c3ccccc3C2C(=O)NCC2CCCO2)cc1` (stereo not drawn), the AC40 is reported as > 26 µM (inactive). Work on `Cc1nc(/C(N)=N/OC(=O)Cc2ccccc2)no1` yielded an AC40 of 22.2 µM. `O=C(O)C(Cc1ccccc1)N1C(=O)c2c(Cl)c(Cl)c(Cl)c(Cl)c2C1=O` (stereo not drawn) was tested, and the AC40 was > 12 µM (inactive). `NC1=NC(=O)/C(=C/c2cn(Cc3ccccc3)c3ccccc23)S1` was tested, and the AC40 was 9.09 µM. In the case of `Cc1cc(C)cc(Oc2ccccc2/C=C\C(=O)O)c1`, the AC40 is reported as > 26 µM (inactive). For `CC(C)CCN=CC1=C(O)CC(c2ccccc2)CC1=O` (stereo not drawn), the AC40 was > 26 µM (inactive). `O=C1CCC(/C=C/c2ccccc2)=NN1` was tested, and the AC40 was > 26 µM (inactive). For `COc1cccc(N=Nc2c(O)[nH]c(=S)[nH]c2=O)c1`, the AC40 was 10.1 µM. `CCC(C)c1ccccc1NC(=O)c1cc(C)no1` (stereo not drawn) was tested, and the AC40 was > 26 µM (inactive). With `COc1cc(/C=N/NC(=S)NC2CC3C=CC2C3)cc(OC)c1OC` (stereo not drawn) the AC40 was > 26 µM (inactive). `O=[N+]([O-])c1ccc(Sc2ccccc2)nc1` was tested, and the AC40 was > 26 µM (inactive). `O=C(NCCN1CCN(C(=O)c2ccc(Br)cc2)CC1)c1ccc(Br)cc1` was tested, and the AC40 was > 26 µM (inactive). With `Cc1ccc(N2C(=O)CCC2(C#N)c2ccccc2)cc1` (stereo not drawn) the AC40 was > 26 µM (inactive). For `Cc1ccccc1-n1nnc2c(=O)oc3ccccc3c21`, the AC40 was > 26 µM (inactive). For `O=C(CN1c2ccccc2S(=O)(=O)c2ccccc21)NCc1ccc(F)cc1`, the AC40 was > 26 µM (inactive). In the case of `O=C1CCCN2N=C(SCC(=O)Nc3ccc(Br)cc3)SC2=N1`, the AC40 is reported as > 26 µM (inactive). With `COc1cc(C2Nc3ccc4ncccc4c3C3=C2C(=O)CCC3)cc(OC)c1OC` (stereo not drawn) the AC40 was 5.44 µM. In the case of `CC1CCN(c2ccc(C=O)o2)CC1`, the AC40 is reported as > 26 µM (inactive). With `Cc1[nH]nc2c1C(c1cc(Br)cs1)C(C#N)=C(N)O2` (stereo not drawn) the AC40 was 12 µM. `CCc1cc(C(c2ccccc2OC)N2CCOCC2)c(NC(=O)c2ccccc2)s1` (stereo not drawn) was tested, and the AC40 was > 26 µM (inactive). Compound `O=c1c2ccccc2[nH]c(=S)n1CCC1=CCCCC1` has an AC40 of 11.3 µM. `O=C(O)CSc1nc2ccccc2nc1Cc1ccccc1F` showed an AC40 of 9.82 µM. `O=C1NCC2=C1C(c1ccc(Br)cc1)Nc1ccccc1N2` (stereo not drawn) was tested, and the AC40 was 3.58 µM. Work on `Cn1cc(C(=O)N/N=C/c2cc(Br)cs2)c2ccccc21` yielded an AC40 of 11.3 µM. Compound `CCOC(=O)Cn1nnc(-c2cccc(OC)c2)n1` has an AC40 of 12.8 µM. `CCCCc1c(O)nc(SCC(=O)N2CCOCC2)n(-c2ccc(OC)cc2)c1=O` was tested, and the AC40 was > 26 µM (inactive). `Cc1ccc(SCCCCN2CCOCC2)cc1` showed an AC40 of 23.9 µM. For `Cn1c(CN2CCN(C(=O)c3ccc(F)cc3)CC2)nc2cc([N+](=O)[O-])ccc21`, the AC40 was > 26 µM (inactive). In the case of `Cc1ccc(C)c(CN2C(=O)COc3ccccc32)c1`, the AC40 is reported as > 26 µM (inactive). `Cn1ncc(Br)c1C(=O)N1CCOCC1` was tested, and the AC40 was > 26 µM (inactive). `Cn1ccc(C(=O)N/N=C/c2ccncc2)n1` showed an AC40 of 14.3 µM. `COc1cc2c(cc1NC(=O)COC(=O)[C@@H](NS(=O)(=O)c1ccccc1)C(C)C)oc1ccccc12` was tested, and the AC40 was > 26 µM (inactive). `Cc1onc(-c2ccccc2)c1C(=O)OCc1nnc(-c2ccccc2)o1` was tested, and the AC40 was > 26 µM (inactive). Compound `O=C1C2CC=CCC2C(=O)N1c1ccc(NCCc2ccccc2)c([N+](=O)[O-])c1` (stereo not drawn) has an AC40 of 3.31 µM. `CCC1Oc2ccc(C)cc2N(Cc2cccc(C)c2)C1=O` (stereo not drawn) gave an AC40 of 13.1 µM. In the case of `COc1ccc(C2CC(=O)c3cnc(N4CCc5ccccc54)nc3C2)cc1OC` (stereo not drawn), the AC40 is reported as > 26 µM (inactive). For `Cc1nnc(Sc2nc3c(c(=O)n(C)c(=O)n3C)n2Cc2ccccc2Cl)s1`, the AC40 was > 26 µM (inactive). With `O=C(CN1C(=O)NC2(CCCC2)C1=O)NCCN1C(=O)S/C(=C\c2ccccc2F)C1=O` the AC40 was > 26 µM (inactive). `O=C(CCC1CCCN(C(=O)c2ccc3cc[nH]c3c2)C1)NCc1ccc(F)c(F)c1` (stereo not drawn) gave an AC40 of 14.8 µM. `COc1ccc(-c2nc3scc(-c4ccccc4)n3n2)cc1` was tested, and the AC40 was 3.34 µM. Work on `CCCN(CC(=O)Nc1ccc(Cl)cc1Cl)C(=O)/C=C/c1ccco1` yielded an AC40 of 13 µM. `CCC(=O)Nc1cccc(C(=O)/C=C/c2ccc(F)cc2)c1` showed an AC40 of 11.2 µM. With `Cc1nc(SCCOc2ccc(F)cc2)c2ccccc2n1` the AC40 was 3.44 µM. With `CC(=O)Nc1ccc(N/C=C/C(=O)C(C)(C)C)cc1` the AC40 was > 26 µM (inactive). `CCNC(=S)N/N=C/c1ccc(-c2ccccc2)o1` was tested, and the AC40 was > 26 µM (inactive). In the case of `O=C(O)C1CCCCC1C(=O)Nc1ccc2c(c1)CCC2` (stereo not drawn), the AC40 is reported as 5.08 µM. `Cn1c(Cl)cnc1C1CC(=O)c2cc(Cl)ccc2O1` (stereo not drawn) was tested, and the AC40 was > 26 µM (inactive).
